Experiment [1] concerns Embryonic mouse hippocampal neurons transduced with TDP-43 EGFP. The experiment is described as follows: Neuroprotection assay (dendrite length rescue). The note with it: average rescue total dendrite length; compound at 10 times the IC50, treated DIV7, 9, 11, fixed DIV12. It counts as cell-based. As to the method: Example 4. Neuroprotection Assay
1× Hank's balanced salt solution (Ca—/Mg, 500 mL) and 10 mM HEPES, pH 7.25-7.3 (IM stock, 5 mL)
MEM (Earle salts+/Glutamine, 95 mL), FBS (to 2.5%, 2.5 mL), Pen/Strep (1×, 1 mL), glutamine (1×, 1 mL), and D-glucose (0.6% w/v, 0.6 g)
neurobasal media (96 mL), B27 supplement (2 mL), Pen/Strep (1 mL), and glutamine (1 mL).
Embryonic mouse hippocampal neurons were cultured according to Kaech, S. and Banker, G. (2006) Nat Protoc 1:2406-2415 and dissected at […] from CD1 mice. Once all the hippocampi were removed, they were placed in a 15 mL conical Falcon tube on ice and brought to a final volume of 4.5 mL with CMF dissection buffer. 0.5 mL of a 2.5% trypsin-EDTA solution was then added, and the mixture was incubated at 37° C. for 15 min. […] Neurons were traced and analyzed using NeuronJ.
Results of the neuroprotection assay for exemplary compounds of the invention are summarized in Table 1, wherein A represents an average rescue total dendrite length of >150%; B represents an average rescue total dendrite length of 100-149%; C represents an average rescue total dendrite length of 50-99%; D represents an average rescue total dendrite length of 0-49%; E represents an average rescue total dendrite length of <0%; and ND signifies that the average rescue total dendrite length was not determined.

In experiment [2] the test system is TDP-43 inclusions in PC12 cells stably expressing wild type (WT) TDP-43-GFP. The experiment is described as follows: Dose response assay for TDP-43 inclusion inhibition. The class given is cell-based. The note with it: Rattus norvegicus, PC-12. As to the method: Example 3. Dose Response Assay for TDP-43 Inhibition
Exemplary compounds of the invention were evaluated for efficacy in inhibiting TDP-43 inclusions using a dose response assay. Briefly, PC12 cells stably expressing wild type (WT) TDP-43-GFP were stressed with 15 μM to induce TDP-43 inclusions. The cells were then treated with exemplary compounds of the invention and the inhibitory effect on TDP-43 inclusions was observed using fluorescent microscopy. The ratio of cells with TDP-43 inclusions was calculated based on the total number of cells with detectable GFP expression. A 12-point dose response curve was generated, and the IC50 for each compound tested was determined.

Where [3] appears, read: inhibition of TDP-43 inclusions, PC12 cells expressing WT TDP-43-GFP, 12-point dose response, fluorescent microscopy, read-out: IC50.

pIC50: −log10 of the molar value. Like-named read-outs stand apart in the source and are kept apart here.

Turning to `CCc1cccc(C)c1NS(=O)(=O)c1ccccc1C(=O)N1CCCC1` [Compound 100, N-(2-ethyl-6-methylphenyl)-2-(pyrrolidine-1-carbonyl)-benzenesulfonamide], the “Average Additive Dendrite Length (%)” value in experiment [1] is recorded as “C (C represents an average rescue total dendrite length of 50-99%)”. Moreover, in experiment [2] (setting [3]), the pIC50 was below 6.30.

`CCc1cccc(C)c1NS(=O)(=O)c1cnccc1C(=O)N1CCCC1` [Compound 101, N-(2-ethyl-6-methylphenyl)-4-(pyrrolidine-1-carbonyl)pyridine-3-sulfonamide]: the “Average Additive Dendrite Length (%)” value in experiment [1] is reported as “C (C represents an average rescue total dendrite length of 50-99%)”. In experiment [2] (setting [3]), the pIC50 was above 7.00.

Turning to `CCc1cccc(C)c1NS(=O)(=O)c1cccnc1` [Compound 102, N-(2-ethyl-6-methylphenyl)pyridine-3-sulfonamide], the negative logarithm of the IC50 (pIC50) in experiment [2] was 6.60 to 7.00.

One may read the pIC50 as the negative decadic logarithm of the IC50, by convention in mol/L.
